In patent US20070213283A1, “Macrolides substituted at the 4"-position” (priority 2003, published 2007):
Counter-ions that a name gives are not always drawn.

Key:
Assay in all cases: MIC, standard broth dilution method in microtitre
Type in all cases: cell-based
[1] = test system: E. faecalis ATCC 29212; settings: Enterococcus faecalis, ATCC29212
Description: (§1) Using a standard broth dilution method in microtitre, compounds were tested for antibacterial activity. The compounds in the above examples gave minimum inhibitory concentrations (MICs) less than 1 microgram per millilitre against erythromycin-sensitive and erythromycin-resistant strains of Streptococcus pneumoniae and Streptococcus pyogenes.
(§2) In addition, the MIC (μg/mL) of test compounds against various organisms was determined including:
(§3) S. aureus Smith ATCC 13709, S. pneumoniae SP030, S. pyogenes 3565, E. faecalis ATCC 29212, H. influenzae ATCC 49247, M. catarrhalis ATCC 23246.

[2] = test system: S. aureus Smith ATCC 13709; settings: Staphylococcus aureus, ATCC13709
Description: as §1, §2, §3

[3] = test system: S. pneumoniae SP030; settings: Streptococcus pneumoniae
Description: as §1, §2, §3

[4] = test system: S. pyogenes 3565; settings: Streptococcus pyogenes
Description: as §1, §2, §3

[5] = test system: H. influenzae ATCC 49247; settings: Haemophilus influenzae, ATCC49247; H. influenzae ATCC 49247; broth dilution in microtitre; read-out: MIC
Description: as §1, §2, §3

[6] = test system: M. catarrhalis ATCC 23246; settings: Moraxella catarrhalis, ATCC23246
Description: as §1, §2, §3

| SMILES | MIC [1] [mg/L] | MIC [2] [mg/L] | MIC [3] [mg/L] | MIC [4] [mg/L] | MIC [5] [mg/L] | MIC [6] [mg/L] |
| --- | --- | --- | --- | --- | --- | --- |
| CC[C@H]1OC(=O)[C@H](C)[C@@H](O[C@H]2C[C@@](C)(OC)[C@@H](OC(=O)CCNCCSc3ccc4c(=O)c(C(=O)O)cn(CC)c4c3)[C@H](C)O2)[C@@H](C)[C@@H](O[C@@H]2O[C@H](C)C[C@H](N(C)C)[C@H]2O)[C@](C)(O)C[C@@H](C)CN(C)[C@H](C)[C@@H](O)[C@]1(C)O [Example 1, 4″-O-{3-[2-(3-Carboxy-1-ethyl-4-oxo-1,4-dihydro-7-quinolinylsulfanyl)ethylamino]propionyl}-azithromycin] | ≤ 1 | ≤ 1 | ≤ 1 | ≤ 1 | ≤ 2 | ≤ 2 |
| CC[C@@H]1OC(=O)[C@H](C)[C@H](O[C@H]2C[C@@](C)(OC)[C@@H](OC(=O)CCNCCSc3ccc4c(=O)c(C(=O)O)cn(CC)c4c3)[C@@H](C)O2)[C@@H](C)[C@H](OC2O[C@@H](C)C[C@@H](N(C)C)[C@H]2O)[C@@](C)(OC)C[C@H](C)C(=O)[C@H](C)[C@@H](O)[C@]1(C)O (some centres unmarked) [Example 3, 4″-O-{3-[2-(3-Carboxy-1-ethyl-4-oxo-1,4-dihydro-7-quinolinylsulfanyl)ethylamino]propionyl}-6-O-methyl-erythromycin A] | – | – | – | – | ≤ 2 | ≤ 2 |
| CC[C@@H]1OC(=O)[C@H](C)[C@@H](O[C@H]2C[C@@](C)(OC)[C@@H](OC(=O)CCNCCSc3ccc4c(=O)c(C(=O)O)cn(CC)c4c3)[C@@H](C)O2)[C@@H](C)[C@H](O[C@H]2O[C@@H](C)C[C@@H](N(C)C)[C@H]2O)[C@](C)(O)C[C@H](C)CN(C)[C@H](C)[C@H]2OC(=O)O[C@]12C [Example 2, 4″-O-{3-[2-(3-Carboxy-1-ethyl-4-oxo-1,4-dihydro-7-quinolinylsulfanyl)ethylamino]propionyl}-azithromycin-11,12-carbonate] | ≤ 1 | ≤ 1 | ≤ 1 | ≤ 1 | ≤ 2 | ≤ 2 |
| CC[C@@H]1OC(=O)[C@H](C)[C@H](O[C@H]2C[C@](C)(OC)[C@@H](OC(=O)CCNCCSc3cnc4c(c3)c(=O)c(C(=O)O)cn4CC)[C@@H](C)O2)[C@@H](C)[C@H](O[C@H]2O[C@@H](C)C[C@@H](N(C)C)[C@H]2O)[C@@](C)(O)C[C@H](C)CN(C)[C@H](C)[C@@H](O)[C@@]1(C)O [Example 4, 4″-O-{3-[2-(3-Carboxy-1-ethyl-4-oxo-1,4-dihydro-[1,8]naphthyridin-6-ylsulfanyl)ethylamino]propionyl}-azithromycin tris trifluoroacetate salt] | ≤ 1 | ≤ 1 | ≤ 1 | ≤ 1 | ≤ 2 | ≤ 2 |
| CC[C@@H]1OC(=O)[C@H](C)[C@H](O[C@@H]2C[C@](C)(OC)[C@H](OC(=O)CCNCCSc3ccc4c(c3)c(=O)c(C(=O)O)cn4CC)[C@H](C)O2)[C@@H](C)[C@H](O[C@@H]2O[C@H](C)C[C@H](N(C)C)[C@@H]2O)[C@](C)(O)C[C@H](C)CN(C)[C@H](C)[C@@H](O)[C@]1(C)O [Example 10, 4″-O-{3-[2-(3-Carboxy-1-ethyl-4-oxo-1,4-dihydro-6-quinolinysulfanyl)ethylamino]propionyl}-azithromycin] | ≤ 1 | ≤ 1 | ≤ 1 | ≤ 1 | – | – |
| CC[C@@H]1OC(=O)[C@H](C)[C@H](O[C@@H]2C[C@](C)(OC)[C@H](OC(=O)CCNCCOc3cc4c5c(c3)c(=O)c(C(=O)O)cn5CCC4)[C@H](C)O2)[C@@H](C)[C@H](O[C@@H]2O[C@H](C)C[C@H](N(C)C)[C@@H]2O)[C@](C)(O)C[C@H](C)CN(C)[C@H](C)[C@@H](O)[C@]1(C)O [Example 12, 4″-O-{3-[2-(6-Carboxy-7-oxo-2,3-dihydro-1H,7H-pyrido[3,2,1-ij]quinolin-9-yloxy)ethylamino]propionyl}-azithromycin tris trifluoroacetate salt] | ≤ 1 | ≤ 1 | ≤ 1 | ≤ 1 | – | – |

Further lines, results first:

| MIC [1] [mg/L] | MIC [2] [mg/L] | MIC [3] [mg/L] | MIC [4] [mg/L] | MIC [5] [mg/L] | MIC [6] [mg/L] | SMILES |
| --- | --- | --- | --- | --- | --- | --- |
| ≤ 1 | ≤ 1 | ≤ 1 | ≤ 1 | – | – | CC[C@H]1OC(=O)[C@H](C)[C@@H](O[C@H]2C[C@@](C)(OC)[C@@H](OC(=O)CCOCCOc3cc4c(=O)c(C(=O)O)cn(C5CC5)c4cc3Cl)[C@H](C)O2)[C@H](C)[C@@H](O[C@@H]2O[C@H](C)C[C@H](N(C)C)[C@H]2O)[C@](C)(O)C[C@@H](C)CN(C)[C@H](C)[C@H]2OC(=O)O[C@@]21C [Example 25, 4″-O-{3-[2-(3-Carboxy-7-chloro-1-cyclopropyl-4-oxo-1,4-dihydro-quinolin-6-yloxy)-ethoxy]-propionyl}-azithromycin11,12-carbonate] |
| ≤ 1 | ≤ 1 | ≤ 1 | ≤ 1 | – | – | CC[C@@H]1OC(=O)[C@H](C)[C@H](O[C@@H]2C[C@](C)(OC)[C@H](OC(=O)CCNCCOc3ccc4c(c3)c(=O)c(C(=O)O)cn4CC)[C@H](C)O2)[C@@H](C)[C@H](O[C@@H]2O[C@H](C)C[C@H](N(C)C)[C@@H]2O)[C@](C)(O)C[C@H](C)CN(C)[C@H](C)[C@@H](O)[C@]1(C)O [Example 14, 4″-O-{3-[2-(3-Carboxy-1-ethyl-4-oxo-1,4-dihydro-6-quinolinyloxy)ethylamino]propionyl}-azithromycin tris trifluoroacetate salt] |
| ≤ 1 | ≤ 1 | ≤ 1 | ≤ 1 | ≤ 2 | ≤ 2 | CC[C@H]1OC(=O)[C@H](C)[C@@H](OC2C[C@@](C)(OC)[C@@H](OC(=O)CCOCCOc3ccc4c(c3)c(=O)c(C(=O)O)cn4C3CC3)[C@H](C)O2)[C@H](C)[C@@H](OC2O[C@H](C)C[C@H](N(C)C)[C@H]2O)[C@](C)(O)C[C@@H](C)CN(C)[C@H](C)[C@@H](OC)[C@]1(C)O (some centres unmarked) [Example 35, 4″-O-{3-[2-(3-Carboxy-1-cyclopropyl-4-oxo-1,4-dihydro-quinolin-6-yloxy)-ethoxy]-propionyl}-11-O-methyl-azithromycin] |
| ≤ 1 | ≤ 1 | ≤ 1 | ≤ 1 | ≤ 2 | ≤ 2 | CC[C@H]1OC(=O)[C@H](C)[C@@H](O[C@H]2C[C@@](C)(OC)[C@@H](OC(=O)CCOCCNc3cc4c(cc3F)c(=O)c(C(=O)O)cn4C3CC3)[C@H](C)O2)[C@H](C)[C@@H](O[C@@H]2O[C@H](C)C[C@H](N(C)C)[C@H]2O)[C@](C)(O)C[C@@H](C)CN(C)[C@H](C)[C@@H](O)[C@]1(C)O [Example 40, 4″-O-{3-[2-(3-Carboxy-1-cyclopropyl-6-fluoro-4-oxo-1,4-dihydro-quinolin-7-ylamino)ethoxy]propionyl}-azithromycin] |
| ≤ 1 | ≤ 1 | ≤ 1 | ≤ 1 | ≤ 2 | ≤ 2 | CC[C@H]1OC(=O)[C@H](C)[C@@H](O[C@H]2C[C@@](C)(OC)[C@@H](OC(=O)CCOCCOc3ccc4c(c3)c(=O)c(C(=O)O)cn4C3CC3)[C@H](C)O2)[C@H](C)[C@@H](O[C@@H]2O[C@H](C)C[C@H](N(C)C)[C@H]2O)[C@](C)(O)C[C@@H](C)CN(C)[C@H](C)[C@H]2OC(=O)O[C@@]21C [Example 26, 4″-O-{3-[2-(3-Carboxy-1-cyclopropyl-4-oxo-1,4-dihydro-quinolin-6-yloxy)-ethoxy]-propionyl}-azithromycin11,12-carbonate] |
| ≤ 1 | ≤ 1 | ≤ 1 | ≤ 1 | – | – | CC[C@@H]1OC(=O)[C@H](C)[C@H](O[C@@H]2C[C@@](C)(OC)[C@H](OC(=O)CCOCCOc3cc4c(=O)c(C(=O)O)cn(C5CC5)c4cc3Cl)[C@H](C)O2)[C@@H](C)[C@H](O[C@@H]2O[C@H](C)C[C@H](N(C)C)[C@@H]2O)[C@@](C)(OC)C[C@H](C)C(=O)[C@H](C)[C@@H](O)[C@]1(C)O [Example 37, 4″-O-{3-[2-(3-Carboxy-7-chloro-1 cyclopropyl-4-oxo-1,4-dihydro-quinolin-6-yloxy)ethoxy]propionyl}-6-O-methyl-erythromycin A] |
| ≤ 1 | ≤ 1 | ≤ 1 | ≤ 1 | ≤ 2 | ≤ 2 | CC[C@H]1OC(=O)[C@H](C)[C@@H](OC2C[C@@](C)(OC)[C@@H](OC(=O)CCOCCOc3cc4c(=O)c(C(=O)O)cn(C5CC5)c4cc3Cl)[C@H](C)O2)[C@H](C)[C@@H](O[C@@H]2O[C@H](C)C[C@H](N(C)C)[C@H]2O)[C@](C)(O)C[C@@H](C)CN(C)[C@H](C)[C@@H](OC)[C@]1(C)O (some centres unmarked) [Example 34, 4″-O-{3-[2-(3-Carboxy-7-chloro-1-cyclopropyl-4-oxo-1,4-dihydro-quinolin-6-yloxy)-ethoxy]-propionyl}-11-O-methyl-azithromycin] |
| ≤ 1 | ≤ 1 | ≤ 1 | ≤ 1 | – | – | CC[C@H]1OC(=O)[C@H](C)[C@@H](O[C@H]2C[C@@](C)(OC)[C@@H](OC(=O)CCOCCNc3cc4c(=O)c(C(=O)O)cn(C5CC5)c4cc3Cl)[C@H](C)O2)[C@H](C)[C@@H](O[C@@H]2O[C@H](C)C[C@H](N(C)C)[C@H]2O)[C@](C)(OC)C[C@@H](C)C(=O)[C@H](C)[C@@H](O)[C@]1(C)O [Example 36, 4″-O-{3-[2-(3-Carboxy-7-chloro-1-cyclopropyl-4-oxo-1,4-dihydro-quinolin-6-ylamino)ethoxy]propionyl}-6-O-methyl-erythromycin A] |
